# Target: T1, hTAS2R31 (Homo sapiens, UniProt P59538)
# T1 sequence (P59538 1-309): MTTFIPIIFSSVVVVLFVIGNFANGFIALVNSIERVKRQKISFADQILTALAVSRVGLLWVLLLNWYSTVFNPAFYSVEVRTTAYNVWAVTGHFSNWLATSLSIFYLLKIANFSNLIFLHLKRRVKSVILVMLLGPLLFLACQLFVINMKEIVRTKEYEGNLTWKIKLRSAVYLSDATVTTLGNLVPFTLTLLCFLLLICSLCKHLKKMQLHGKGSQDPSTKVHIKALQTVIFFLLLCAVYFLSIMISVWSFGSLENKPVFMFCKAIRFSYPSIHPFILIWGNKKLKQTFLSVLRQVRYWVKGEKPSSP
# Test: HEK-293T cell-based receptor assay
row,IC50 [µM],SMILES
1,5.5 ± 2.5,"COc1cc(O)c2c(c1)O[C@H](c1ccc(O)cc1)CC2=O [compound 2, sakuranetin]"
2,11.7 ± 6,"COc1cc(-c2cc(=O)c3c(O)c(OC)c(O)cc3o2)ccc1O [compound 10, jaceosidin]"
3,10.2 ± 5.4,"COc1cc2c(c(O)c1OC)C(=O)C[C@@H](c1ccc(O)cc1)O2 [compound 9, 6-methoxysakuranetin]"

# Reference: PMC4391372 (Journal of agricultural and food chemistry, 2011)
